The source of these data is patent publication US6861230B1, “Antibiotic sensitivity testing” (priority 1998, dated 2005).

Assay [1] has as its system E. coli 10243 (sensitive, untransformed). Nature of the assay: Adenylate kinase release (cell lysis) assay with antibiotic and phage 10359, sensitive strain. Format: cell-based, Escherichia coli. How it is done: For example, in one embodiment, a sample of bacterial cells is divided into first and second samples. The first sample of bacterial cells is mixed with a solution containing ADP and a detergent in the presence of magnesium ions. This extracts the adenylate kinase from all the cells present in the sample, thus allowing the ATP generating reaction to occur. The reaction is allowed to proceed for the required time e.g. 5 minutes, after which bioluminescence reagent is added and the resulting light measured in a luminometer. An assay performed in this way determines the total amount of adenylate kinase in a sample, be it extracellular or intracellular.
The second sample is subjected to a similar assay but in the absence of detergent so that only extracellular adenylate kinase is measured. […]

For assay [2], the system named is E. coli 10243 carrying plasmid encoding ampicillin resistance (pUC18). As to the kind of experiment: Adenylate kinase release (cell lysis) assay with antibiotic and phage 10359, ampicillin-resistant strain. The following applies: log phase, 10^5 phage 10359 at T0, 50 μg/ml ampicillin at T5. The format is cell-based, Escherichia coli. How it is done: A plasmid encoding ampicillin resistance (pUC18) was introduced into a pure culture of E. coli 10243 in order to induce resistance without altering phage host specificity.
Log phase cultures of both resistant and sensitive strains of E. coli 10243 were infected with 10^5 phage 10359 at T0 and 50 μg/ml ampicillin at T5.

Regarding `CC1(C)S[C@@H]2[C@H](NC(=O)[C@H](N)c3ccccc3)C(=O)N2[C@H]1C(=O)O` [ampicillin], the “Cell lysis due to ampicillin (adenylate kinase release)” value in assay [1] (sensitive strain, log phase, 10^5 phage 10359 at T0, 50 μg/ml ampicillin at T5, time in min) is “evident at T10 and significant at T20”. Also, the “Effect of the antibiotic on the resistant strain (adenylate kinase release)” value in assay [2] was “unaffected by the antibiotic”.

For the compound `O=C(N[C@H](CO)[C@H](O)c1ccc([N+](=O)[O-])cc1)C(Cl)Cl` [chloramphenicol], the “Degree of phage mediated lysis in cultures containing the antibiotic” value in assay [1] (phage 10359 plus chloramphenicol 34 μg/ml versus phage only, 80 min) is reported as “considerably less”. Also, the “Cell lysis with both bacteriophage and chloramphenicol compared with chloramphenicol alone” value in assay [1] (phage 10359 plus chloramphenicol 34 μg/ml, 80 min) is reported as “Greater cell lysis”.
